Results published in patent EP0426574A1, “Thiazole derivatives and antiulcer agents containing the same” (TERUMO KABUSHIKI KAISHA, priority 1989, dated 1991).
Where a name gives a salt, the structure may show the parent alone.

System: ethanol hydrochloric acid ulcer
Assay: Inhibitory activity against ethanol hydrochloric acid ulcer
Type: in vivo
Settings: SD male rats fasted 24 hours; 30mg/kg orally, one hour before 150 mM hydrochloric acid in 60% ethanol; ulcer index = total lesion length, one hour later
Method: To SD male rats (weighing 150-250 g) fasted for 24 hours was administered orally a thiazole derivative of the invention. One hour later, a hydrochloric acid solution in ethanol (containing 150 mM hydrochloric acid in 60% ethanol) was orally given in a volume of 0.5 ml/100 g bodyweight.
One hour later, the animals were sacrificed with ether. The stomach was excised and, after formalin treatment, measured for the length (mm) of lesions developed in glandular portions of the stomach. Total length of the lesions per animal was taken as ulcer index.
Percent inhibition of ulceration as referred to in the table is a value obtained by reducing from 1 the ulcer index for the rat with a thiazole derivative of the invention orally given divided by the ulcer index for the orally non-administered rat and multiplying the value by 100. The calculation is conducted by the formula shown below. [formula]

Structure (SMILES)	Percent inhibition of ulceration (%)
CN(C)c1ccc(Nc2nc3cccnc3s2)cc1 [Example 4, 2-(4-dimethylaminophenyl)amino[5,4-b]pyridothiazole hydrochloride]	45.5
c1ccc(Nc2nc3cccnc3s2)cc1 [Example 2, 2-phenylamino[5,4-b]pyridothiazole hydrochloride]	88.8
c1ccc(CNc2nc3cccnc3s2)cc1 [Example 3, 2-benzylamino[5,4-b]pyridothiazole hydrochloride]	87.2
COc1ccc(Nc2nc3cccnc3s2)cc1 [Example 5, 2-(4-methoxyphenyl)-amino[5,4-b]pyridothiazole hydrochloride]	51.2
CNc1nc2cccnc2s1 [Example 1, 2-methylamino[5,4-b]pyridothiazole hydrochloride]	100.0
